The subject of assay [1] is human colon cancer cells COL-2-JCK. Briefly: Inhibition of colony forming activity in human colon cancer cells. It counts as cell-based. The settings on record: Homo sapiens, 240 h; 1 μM test compound; 10 days; sum of colony areas vs control; read-out: Inhibition Rate (%) against the colony forming activity. The method, then: For the medium to culture the human colon cancer cells, D-MEM/F-12 medium containing inactivated bovine fetal serum at a concentration of 10% (GIBCO) was used. The human colon cancer cells COL-2-JCK (purchased from Institute for Experimental Animals) grown in mass formation in a plastic dish for the cell culture with an inner diameter of 100 mm were stripped off from the dish by using EDTA (ethylenediaminetetraacetic acid) and 0.05% trypsin solution. Then, a cell dilution solution was prepared at a concentration of 100 cells/mL solution which was diluted with the medium (D-MEM/F-12).
Three (3) mL of the cell solution were inoculated in each well of a 6-well plastic plate (300 cells/well). The test compound that was dissolved in DMSO solution so as to be a final concentration of 1 μM of the test compound and that of DMSO solution of 0.1% was added to each well. DMSO solution alone was added into the well for the control so as to be a final concentration of 0.1%.
The cells in each well were cultured for 10 days at 37° C. in the presence of 5% CO2. After the culturing was finalised, each well was washed once with Dulbecco-phosphate-buffer-saline solution (bivalent anion). Then, 1.5 ml of neutral buffered formalin solution containing 0.02% crystal violet was added to each well and the plate was kept stationary for 5 min for fixation and staining the cells. After fixation and staining, the cells were washed with water and were air-dried. Then the sum of the colony area (mm^2) of the stained cancer cells was calculated by using an image analyzer PCA-11 (SystemScience). From the calculated values, the inhibition rate (%) of the compound against the colony forming activity was obtained based on the following equation.
Inhibition Rate (%) against the colony forming activity=(1−A/B)×100
A: Sum of Colony Areas in the Group Treated with 1 μM of the Test Compound
B: Sum of Colony Areas in the Control Group

For assay [2], the target named is T1, human PPAR γ 2 (Homo sapiens, UniProt P37231).
T1 construct: expressed in transfected cells; host or cells: human osteosarcoma MG63, transiently co-transfected with pSG5-hPPARg and the reporter pGV-P2-PPRE
T1 sequence (P37231 1-505): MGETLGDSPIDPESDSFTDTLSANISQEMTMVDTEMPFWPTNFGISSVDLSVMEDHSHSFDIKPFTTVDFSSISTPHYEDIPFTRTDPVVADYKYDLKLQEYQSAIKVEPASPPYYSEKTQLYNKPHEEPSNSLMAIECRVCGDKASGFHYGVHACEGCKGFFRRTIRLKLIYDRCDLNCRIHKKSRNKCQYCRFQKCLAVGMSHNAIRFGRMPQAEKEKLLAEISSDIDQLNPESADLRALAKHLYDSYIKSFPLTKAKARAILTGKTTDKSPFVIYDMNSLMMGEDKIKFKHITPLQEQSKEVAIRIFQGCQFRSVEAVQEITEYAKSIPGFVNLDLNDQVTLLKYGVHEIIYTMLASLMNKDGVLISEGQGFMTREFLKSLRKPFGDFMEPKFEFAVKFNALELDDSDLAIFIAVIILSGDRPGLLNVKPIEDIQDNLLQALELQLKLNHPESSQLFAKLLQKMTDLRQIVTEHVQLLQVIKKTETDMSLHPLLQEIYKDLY
The experiment in a line: Inhibitory activity against PPAR γ transcription in the presence of agonist compound A, luciferase reporter. It counts as cell-based. Conditions: in the presence of 10 nM compound A (agonist); MG63 cells transfected with pSG5-hPPARg and pGV-P2-PPRE; 24 hr. An excerpt:
The primers of the polymerase chain reaction (hereinafter “PCR”) were designed according to the gene sequence of human PPAR γ 2 (GenBANK accession No. D83233). […] For this, 2 kinds of polynucleotides shown in the sequence numbers 1 and 2 in the sequence table described below (hereinafter “S1” and “AS1”, respectively) were used as PCR primers.
(§1) In order to determine transcriptional activity via PPAR γ, 2 kinds of polynucleotides represented in sequence numbers 3 and 4 in the sequence table described below (hereinafter “S2” and “AS2”, respectively) were used for construction of the reporter plasmid having PPAR responsive element. The DNA fragment inserted was designed based on the gene sequence in the promoter region of rat acylCo-A oxidase (J. D. Tugwood, EMBO J., 11 (2), pp433-439 (1992)). For insertion of the DNA fragment into the reporter plasmid pGV-P2 (TOYO INK MFG CO., LTD), a NheI site and an XhoI site were added to the S2 and AS2, respectively.
Using cDNA library (Clontech) derived from human adipose tissue as a template, DNA oligomers S1 and AS1 that were synthesized in the procedure 1 as primers and Ex-Taq™ (TAKARA BIO INC.) as a thermostable DNA polymerase-PCR was carried out. […] Each cycle consisted of incubation at 94° C. for 1 min for denaturation of the template, then at 55° C. for 30 sec for annealing of DNA oligomers the PCR primer, and then at 72° C. for 30 sec for extension of the chain. The obtained DNA fragments with approximately 1500 base pairs were digested at the Bgl II sites and were inserted into BamHI sites of pSG5. Thus a human PPAR γ expression plasmid named pSG5-hPPAR g was obtained.
(§2) Vector pGV-P2 digestion products was prepared by digestion using the restriction enzymes, NheI and XhoI, and purified by 1.0% agarose-gel electrophoresis. The DNA oligomers, S2 and AS2 obtained in Procedure 2, were mixed together and were incubated in a hot bath at 94° C. for 1 min. After the annealing was partially broken, they were further incubated at 25° C. for 1 hr. Thus double-stranded DNA with annealing of S2 and AS2 was formed. Then, the terminus of the double-stranded DNA with annealing of S2 and AS2 was phosphorylated with DNA polynucleotide kinase (TOYOBO CO., LTD). After that, it was ligated to the pGV-P2 digestion products which were prepared previously using the NheI site and XhoI site. Thus the reporter plasmid pGV-P2-PPRE was obtained.
(§3) Using the plasmid obtained by the procedures 3 and 4, transformation of Escherichia coli HB-101 strain was carried out by conventional methods. HB-101 strain having the plasmid was incubated in L-broth medium (containing 10 g of trypton (Difco), 5 g of yeast extract (Difco), 5 g of sodium chloride in 1 L of aqueous solution) containing 100 μg/ml of ampicillin at 37° C. for 17 hrs. Then, each plasmid was purified by the alkaline-SDS method and employed for the gene transfection to mammalian cells. After mixing the pSG5-hPPARg, PGV-P2-PPRE and LipofectAMINE reagent (GIBCO BRL), the human osteosarcoma MG63 was transiently transfected. Then the cells were recovered. The recovered cells were plated on a 96-well plate so as to be 30,000 cells/well and cultured in a CO2 incubator (NAPCO) at 37° C. for 24 hr under the condition of 5% CO2, 95%-RH.
Ten (10) nM of the following compound A (although compound A is described here as a representative compound, the compound is not limited to compound A, if the compound exerts a PPAR r agonistic activity) and various concentrations of the test compound were added to culturing medium of the cells prepared in the Procedure 5.
A general note: Reporter assays use an easily measured gene product as a stand-in for the process of interest.

Assay [3] has as its target T1, human PPAR γ 2. Briefly: PPAR γ transcriptional activity, luciferase reporter, test compound alone. The settings on record: concentration indicating Emax/2, MG63 cells transfected with pSG5-hPPARg and pGV-P2-PPRE, 24 hr. It counts as cell-based. The method, then:
The primers of the polymerase chain reaction (hereinafter “PCR”) were designed according to the gene sequence of human PPAR γ 2 (GenBANK accession No. D83233). In order to insert the genes into the BamHI site of the plasmid pSG5 ([…] CLONING SYSTEMS), Bgl II sites were added upstream and downstream of the genes encoding human PPAR γ 2 protein. For this, 2 kinds of polynucleotides shown in the sequence numbers 1 and 2 in the sequence table described below (hereinafter “S1” and “AS1”, respectively) were used as PCR primers.
as §1
Using cDNA library (Clontech) derived from human adipose tissue as a template, DNA oligomers S1 and AS1 that were synthesized in the procedure 1 as primers and Ex-Taq™ (TAKARA BIO INC.) as a thermostable DNA polymerase-PCR was carried out. As a result of the PCR, the c.a. 1500 bps DNA fragments were amplified. Each cycle consisted of incubation at 94° C. for 1 min for denaturation of the template, then at 55° C. for 30 sec for annealing of DNA oligomers the PCR primer, and then at 72° C. for 30 sec for extension of the chain. The obtained DNA fragments with approximately 1500 base pairs were digested at the Bgl II sites and were inserted into BamHI sites of pSG5. Thus a human PPAR γ expression plasmid named pSG5-hPPAR g was obtained. The nucleotide sequence of the inserted DNA fragment was confirmed to be identical sequence to the human PPAR γ 2 reported by the dideoxy method.
as §2, §3
Various concentrations of the test compound alone were added to culturing medium of the cells prepared in the Procedure 5. After 24 hr of culturing, LT2.0 (TOYO INK MFG CO., LTD), a luciferase substrate, was added to the medium free culture plate. […]

Another assay deals with Rat white adipocytes. Briefly: Stimulation of differentiation of the adipocytes (Oil Red O). The settings on record: Rattus norvegicus, Adipocyte, 120 h, 100 nM test compound; 5 days; Oil Red O ABS550; control = 100%, blank = 0%; Table 7; read-out: Rate of Differentiation (%). In kind it is cell-based. The procedure, abridged:
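Oil Red O lipid staining, absorbance 550 nm after DMSO extraction, quantified differentiation of rat white adipocytes exposed 5 days to compound (final 100 nM, 0.1% DMSO) in differentiation medium. Percent differentiation normalised between cell-free blank (0%) and DMSO control (100%).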

The subject of assay [4] is Mouse preadipocyte strain 3T3-L1. Briefly: Inhibition of differentiation as an indication of acetic acid uptake. The settings on record: Mus musculus, 3T3-L1, 0.1 μM test substance, control (0.01% dimethylsulfoxide) = 100%, read-out: Rate of Uptake (%) of [2-14C] acetic acid. It counts as cell-based. Put shortly: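 Differentiation is indexed by 1 hr [2-14C]acetic acid incorporation, measured by scintillation counting and given as uptake relative to 0.01% DMSO control (100%). Mouse 3T3-L1 preadipocytes, pre-grown 10 days, received 0.1 μM test substance throughout a 4-day insulin/IBMX/dexamethasone induction, followed by 2 days' maintenance culture.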

In a further assay the test system is Balb/c mice. The experiment in a line: Prevention of concanavalin A liver injury. In kind it is in vivo, mouse. The settings on record: Mus musculus, po, 24 h, 10 mg/mL suspension at 10 mL/kg, 30 min prior to Con A, plasma 24 hr after Con A. The method, then:
Five (5) Balb/c mice (female, 6-8 weeks old) per group were used. Liver injury was elicited in the mouse by injection of concanavalin A (Con A) dissolved in saline (2.0 mg/mL) into the tail vein at a volume of 10 mL/kg of the solution (Hepatology, 21, 190-198 (1995)).
The test compounds were suspended in distilled water containing 0.5% CMC, at a concentration of 10 mg/mL. This suspended solution was orally administered to the mouse at a volume of 10 mL/kg, 30 min prior to injection of Con A (group A).
Apart from this group, distilled water containing 0.5% CMC powder, instead of the test compound, was orally administered in the second group of mice (group B). In the 3rd group, nothing was given to the mice (group C).
Twenty four (24) hr after the injection of Con A, blood was collected from the abdominal aorta of the mice and the plasma was isolated while mixing with heparin. Activities of glutamic acid oxaloacetic acid transaminase (AST) and glutamic acid pyruvic acid transaminase (ALT) in the plasma were determined according to the methods described by Nagakawa et al. (J. Pharmacol. Exp. Ther., 264, 496-500 (1993)). From the values obtained inhibitory rates of the test compound against AST and ALT levels which had been increased by injection of Con A, were obtained based on the following equation.
Inhibitory Rate(%)={1−[(A−C)/(B−C)]}×100
A: The average level of AST or ALT in the group A
B: The average level of AST or ALT in the group B
C: The average level of AST or ALT in the group C

Where [5] appears, read: read-out: Preventing rate against liver injury, ALT (%).
Setting [6] is: read-out: Preventing rate against liver injury, AST (%).

Like-named read-outs stand apart in the source and are kept apart here.

The inhibition is the change of the read-out against control, counted positive when it falls. A word on the IC50: it is the concentration needed to halve the response being measured. In general, EC50 refers to the midpoint of the concentration-response curve.

Regarding `Cc1nc(NS(=O)(=O)c2ccc(NC(=O)c3cc([N+](=O)[O-])ccc3Cl)cc2)oc1C` [Example 97, N-[4-(4,5-Dimethyloxazol-2-yl)aminosulfonyl]phenyl-(2-chloro-5-nitrophenyl)carboxamide], the inhibition at 1 µM in assay [1] worked out at 3%. Moreover, on human PPAR γ 2 [2], the IC50 turned out to be 790 nM. Also, the EC50 on human PPAR γ 2 [3] is 360 nM.
Regarding `CS(=O)(=O)Nc1ccc(NC(=O)c2cc([N+](=O)[O-])ccc2Cl)cc1` [Example 136, N-(4-Methanesulfonylaminophenyl)-(2-chloro-5-nitrophenyl)carboxamide], the activity at 0.1 µM with Rat white adipocytes worked out at 129%; in assay [4], 88.9%. Moreover, the values for the inhibition in vivo at 10000 µg/mL, 100 mg/kg in the assay on Balb/c mice (setting [5]) and in the assay on Balb/c mice (setting [6]) were 13.1% and 12%, respectively.
Taken in the same sequence, the figures for `Cc1ccc(NS(=O)(=O)c2cccc(NC(=O)c3cc([N+](=O)[O-])ccc3Cl)c2)cc1` [Example 142, N-[3-(4-Tolylaminosulfonyl)phenyl]-(2-chloro-5-nitrophenyl)carboxamide] were 112%, 74.4%, 54% and 63%.
